Assay results: patent US8455544B2, “Synthetic triterpenoids and methods of use in the treatment of disease” (Reata Pharmaecuticals, Inc., priority 2008, dated 2013)

Legend:
[1] = Serum creatinine in toxicology study, dogs; format: in vivo, beagle dogs; settings: oral, daily for three months
Procedure: FIGS. 3a-d—RTA 402 reduces serum creatinine levels in monkeys, dogs, and rats. (FIG. 3a) Cynomolgus monkeys were administered RTA 402 orally at the indicated doses once daily for 28 days. The percent reduction of serum creatinine on Day 28 in RTA 402-treated monkeys relative to vehicle-treated control monkeys is shown. (FIG. 3b) RTA 402 was administered orally to beagle dogs at the indicated doses daily for three months. Control animals received vehicle (sesame oil). The percent change in serum creatinine at the three-month time point relative to baseline is shown. (FIG. 3c) Sprague-Dawley rats were administered RTA 402 orally at the indicated doses once daily for a period of one month. The percent reduction of serum creatinine at study completion in RTA 402-treated rats relative to vehicle-treated control rats is shown. (FIG. 3d) Sprague-Dawley rats were administered the amorphous form of RTA 402 orally at the indicated doses once daily for a period of three months. The percent reduction of serum creatinine at study completion in RTA 402-treated rats relative to vehicle-treated control rats is shown. […] For example, a reading of −15 on this axis indicates a 15% reduction in serum creatinine.
Serum creatinine has been measured in several animal species treated with RTA 402 in the course of toxicology studies. […]

[2] = system: patients with cancer; assay: Phase I clinical trial in patients with cancer (solid tumor study): serum creatinine, eGFR; format: in vivo, human
Procedure: FIGS. 4A-B—RTA 402 reduces serum creatinine levels and increases the estimated glomerular filtration rate (eGFR) in human patients with cancer. FIG. 4A: Serum creatinine was measured in RTA 402-treated patients enrolled in a Phase I clinical trial for the treatment of cancer. The patients were administered RTA 402 (p.o.) once daily for 21 days at doses ranging from 5 to 1,300 mg/day. The percent reduction of serum creatinine relative to baseline levels is shown for the indicated study days. Significant decreases in serum creatinine levels were observed on Days 15 and 21. FIG. 4B: The estimated glomerular filtration rate (eGFR) was calculated for the patients in FIG. 4A. […] All patients: n=24; patients with baseline ≧1.5: n=5. For FIGS. 4A and 4B, * indicates p≦0.04; † indicates p=0.01, and ‡ indicates p≦0.01. Note: in FIG. 4A, “% Reduction from Baseline” on the vertical axis indicates percent change. For example, a reading of −15 on this axis indicates a 15% reduction in serum creatinine.
(§1) FIG. 5—RTA 402 increases GFR in human patients with cancer. Estimated glomerular filtration rate (eGFR) was measured in RTA 402-treated patients enrolled in a multi-month clinical trial for the treatment of cancer. All patients (n=11) dosed through six months were included in the analysis. The dosing information for these patients is provided in Example 5, below.
Serum creatinine has also been measured in patients with cancer enrolled in a Phase I clinical trial of RTA 402. These patients received RTA 402 once daily at doses from 5 to 1,300 mg/day for a total of twenty-one days every 28 days. A reduction in serum creatinine by greater than 15% was observed as early as eight days following treatment initiation and persisted through the end of the cycle (FIG. 4A). This reduction was maintained in those patients that received six or more cycles of treatment with RTA 402. […] In these patients, serum creatinine levels decreased progressively throughout the cycle such that the Day 21 levels were approximately 25% lower than baseline levels (FIG. 4A).
(§2) Some of these patients were enrolled in the Phase I study, whereas others were enrolled in a study of RTA 402 (in combination with gemcitabine) in patients with pancreatic cancer.

[3] = system: patients with pancreatic cancer; assay: Study of RTA 402 in combination with gemcitabine in patients with pancreatic cancer: eGFR; format: in vivo, human; parameters: unit not given here
Procedure: as §1, §2

[4] = system: patients with diabetic nephropathy; assay: Hyperinsulinemic euglycemic clamp test, Phase II study; format: in vivo, human; settings: after the 28 day treatment
[5] = system: NQO1 in Hepa1c1c7 murine hepatoma cells; settings: concentration required to induce a two-fold increase in expression of NQO1, Hepa1c1c7 cells; cited from earlier work

## COC(=O)[C@]12CCC(C)(C)C[C@H]1[C@H]1C(=O)C=C3[C@@]4(C)C=C(C#N)C(=O)C(C)(C)[C@@H]4CC[C@@]3(C)[C@]1(C)CC2 [RTA 402, methyl-2-cyano-3,12-dioxooleana-1,9-dien-28-oic acid]
[1]
  Serum creatinine levels relative to baseline: Significant reductions
[2]; 5 to 1,300 mg/day once daily for 21 days every 28 days, as early as eight days following treatment initiation
  Reduction in serum creatinine: greater than 15%
[2]; Day 21, subset with baseline serum creatinine of at least 1.5 mg/dl
  Serum creatinine lower than baseline levels: approximately 25%
[2]; Phase I patients, 21 days
  Estimated glomerular filtration rate (eGFR): significantly improved
[2]; Pt 402, dose 5 mg, cycle 1 (28 days each), BL 109.7
  eGFR: 109.7
[2]; Pt 402, dose 5 mg, cycle 2, BL 109.7
  eGFR: 109.7
[2]; Pt 402, dose 5 mg, cycle 3, BL 109.7
  eGFR: 95.7
[2]; Pt 402, dose 5 mg, cycle 4, BL 109.7
  eGFR: 95.7
[2]; Pt 402, dose 5 mg, cycle 5, BL 109.7
  eGFR: 109.7
[2]; Pt 402, dose 5 mg, cycle 6, BL 109.7
  eGFR: 95.7
[2]; Pt 406, dose 80 mg, cycle 1, BL 94.2
  eGFR: 125.9
[2]; Pt 406, dose 80 mg, cycle 2, BL 94.2
  eGFR: 107.9
[2]; Pt 406, dose 80 mg, cycle 3, BL 94.2
  eGFR: 107.9
[2]; Pt 406, dose 80 mg, cycle 4, BL 94.2
  eGFR: 125.9
[2]; Pt 406, dose 80 mg, cycle 5, BL 94.2
  eGFR: 107.9
[2]; Pt 406, dose 80 mg, cycle 6, BL 94.2
  eGFR: 125.9
[2]; Pt 408, dose 150 mg, cycle 1, BL 73.2
  eGFR: 82.1
[2]; Pt 408, dose 150 mg, cycle 2, BL 73.2
  eGFR: 77.4
[2]; Pt 408, dose 150 mg, cycle 3, BL 73.2
  eGFR: 69.4
[2]; Pt 408, dose 150 mg, cycle 4, BL 73.2
  eGFR: 77.4
[2]; Pt 408, dose 150 mg, cycle 5, BL 73.2
  eGFR: 77.4
[2]; Pt 408, dose 150 mg, cycle 6, BL 73.2
  eGFR: 87.4
[2]; Pt 409, dose 150/300 mg, cycle 1, BL 48.4
  eGFR: 62.6
[2]; Pt 409, dose 150/300 mg, cycle 2, BL 48.4
  eGFR: 62.6
[2]; Pt 409, dose 150/300 mg, cycle 3, BL 48.4
  eGFR: 62.6
[2]; Pt 409, dose 150/300 mg, cycle 4, BL 48.4
  eGFR: 57.0
[2]; Pt 409, dose 150/300 mg, cycle 5, BL 48.4
  eGFR: 69.2
[2]; Pt 409, dose 150/300 mg, cycle 6, BL 48.4
  eGFR: 69.2
[2]; Pt 410, dose 300/600 mg, cycle 1, BL 49.9
  eGFR: 69.6
[2]; Pt 410, dose 300/600 mg, cycle 2, BL 49.9
  eGFR: 63.4
[2]; Pt 410, dose 300/600 mg, cycle 3, BL 49.9
  eGFR: 63.4
[2]; Pt 410, dose 300/600 mg, cycle 4, BL 49.9
  eGFR: 69.6
[2]; Pt 410, dose 300/600 mg, cycle 5, BL 49.9
  eGFR: 63.4
[2]; Pt 410, dose 300/600 mg, cycle 6, BL 49.9
  eGFR: 69.6
[2]; Pt 421, dose 1300/900 mg, cycle 1, BL 52.5
  eGFR: 58.6
[2]; Pt 421, dose 1300/900 mg, cycle 2, BL 52.5
  eGFR: 66.2
[2]; Pt 421, dose 1300/900 mg, cycle 3, BL 52.5
  eGFR: 75.8
[2]; Pt 421, dose 1300/900 mg, cycle 5, BL 52.5
  eGFR: 88.4
[2]; Pt 421, dose 1300/900 mg, cycle 6, BL 52.5
  eGFR: 75.8
[2]; Pt 427, dose 1300 mg, cycle 1, BL 70.1
  eGFR: 101.3
[2]; Pt 427, dose 1300 mg, cycle 2, BL 70.1
  eGFR: 78.3
[2]; Pt 427, dose 1300 mg, cycle 3, BL 70.1
  eGFR: 88.4
[2]; Pt 427, dose 1300 mg, cycle 4, BL 70.1
  eGFR: 101.3
[2]; Pt 427, dose 1300 mg, cycle 5, BL 70.1
  eGFR: 101.3
[2]; Pt 427, dose 1300 mg, cycle 6, BL 70.1
  eGFR: 101.3
[2]; all patients, n=45, Day 21
  % Serum Creatinine Decrease from Baseline: −18.3%
[2]; all patients, n=45, drug for at least 3 weeks
  % of Patients with Decrease on Day 21 (serum creatinine): 87%
[2]; sub-set with elevated baseline serum creatinine levels, n=8
  % of Patients with Decrease on Day 21 (serum creatinine): 100%
[2]; sub-set with elevated baseline serum creatinine levels, n=8, Day 21
  % Serum Creatinine Decrease from Baseline: −24.5%
[3]; Pt 1001, dose 150 mg, cycle 1, BL 68.8
  eGFR: 78.9
[3]; Pt 1001, dose 150 mg, cycle 2, BL 68.8
  eGFR: 109.9
[3]; Pt 1001, dose 150 mg, cycle 3, BL 68.8
  eGFR: 135.7
[3]; Pt 1001, dose 150 mg, cycle 4, BL 68.8
  eGFR: 175.5
[3]; Pt 1001, dose 150 mg, cycle 5, BL 68.8
  eGFR: 175.5
[3]; Pt 1001, dose 150 mg, cycle 6, BL 68.8
  eGFR: 135.7
[3]; Pt 1104, dose 300/150 mg, cycle 1, BL 67.3
  eGFR: 95.7
[3]; Pt 1104, dose 300/150 mg, cycle 2, BL 67.3
  eGFR: 71.6
[3]; Pt 1104, dose 300/150 mg, cycle 3, BL 67.3
  eGFR: 141.2
[3]; Pt 1104, dose 300/150 mg, cycle 4, BL 67.3
  eGFR: 95.7
[3]; Pt 1104, dose 300/150 mg, cycle 5, BL 67.3
  eGFR: 114.4
[3]; Pt 1104, dose 300/150 mg, cycle 6, BL 67.3
  eGFR: 114.4
[3]; Pt 1105, dose 300 mg, cycle 1, BL 82.4
  eGFR: 106.6
[3]; Pt 1105, dose 300 mg, cycle 2, BL 82.4
  eGFR: 89.3
[3]; Pt 1105, dose 300 mg, cycle 3, BL 82.4
  eGFR: 106.6
[3]; Pt 1105, dose 300 mg, cycle 4, BL 82.4
  eGFR: 106.6
[3]; Pt 1105, dose 300 mg, cycle 5, BL 82.4
  eGFR: 131.6
[3]; Pt 1105, dose 300 mg, cycle 6, BL 82.4
  eGFR: 170.3
[3]; Pt 1106, dose 300 mg, cycle 1, BL 89.0
  eGFR: 106.3
[3]; Pt 1106, dose 300 mg, cycle 2, BL 89.0
  eGFR: 106.3
[3]; Pt 1106, dose 300 mg, cycle 3, BL 89.0
  eGFR: 106.3
[3]; Pt 1106, dose 300 mg, cycle 4, BL 89.0
  eGFR: 131.2
[3]; Pt 1106, dose 300 mg, cycle 5, BL 89.0
  eGFR: 131.2
[3]; Pt 1106, dose 300 mg, cycle 6, BL 89.0
  eGFR: 131.2
[4]
  Glucose disposal rate (GDR): improvements
[4]; more severely impaired patients (GDR<4), p≦0.02
  Glucose disposal rate (GDR): statistically significant improvements
[5]
  NQO1 CD: 1.0 nM
